ChEMBL document CHEMBL5518174 (Eur J Med Chem, 2024)

What was measured:
[1] = biological target: T1, Histone deacetylase 8 (Homo sapiens, UniProt Q9BY41); experiment: Inhibition of recombinant human HDAC8 using acetylated luminogenic substrate incubated for 10 mins by ultra-glo recombinant firefly luciferase based luminescence assay
T1 sequence (Q9BY41 whole entry): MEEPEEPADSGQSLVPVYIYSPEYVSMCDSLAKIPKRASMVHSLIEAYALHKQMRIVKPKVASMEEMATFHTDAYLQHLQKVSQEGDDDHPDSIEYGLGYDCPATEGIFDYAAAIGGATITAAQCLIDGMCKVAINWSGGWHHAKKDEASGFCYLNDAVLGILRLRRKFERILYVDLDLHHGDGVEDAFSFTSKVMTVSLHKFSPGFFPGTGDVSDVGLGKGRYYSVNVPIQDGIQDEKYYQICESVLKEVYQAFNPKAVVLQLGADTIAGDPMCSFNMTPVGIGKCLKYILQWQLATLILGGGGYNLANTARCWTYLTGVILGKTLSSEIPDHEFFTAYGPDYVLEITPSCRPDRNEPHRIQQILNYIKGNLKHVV

[2] = Effect on HDAC6 protein expression in human MDA-MB-231 cells assessed as fold change at 0.1 uM incubated for 24 hrs by immunoblotting analysis (reference value: 1); type: functional
[3] = biological target: T2, Histone deacetylase 7 (Homo sapiens, UniProt Q8WUI4); experiment: Inhibition of recombinant human HDAC7 using acetylated luminogenic substrate incubated for 10 mins by ultra-glo recombinant firefly luciferase based luminescence assay
T2 sequence (Q8WUI4 whole entry): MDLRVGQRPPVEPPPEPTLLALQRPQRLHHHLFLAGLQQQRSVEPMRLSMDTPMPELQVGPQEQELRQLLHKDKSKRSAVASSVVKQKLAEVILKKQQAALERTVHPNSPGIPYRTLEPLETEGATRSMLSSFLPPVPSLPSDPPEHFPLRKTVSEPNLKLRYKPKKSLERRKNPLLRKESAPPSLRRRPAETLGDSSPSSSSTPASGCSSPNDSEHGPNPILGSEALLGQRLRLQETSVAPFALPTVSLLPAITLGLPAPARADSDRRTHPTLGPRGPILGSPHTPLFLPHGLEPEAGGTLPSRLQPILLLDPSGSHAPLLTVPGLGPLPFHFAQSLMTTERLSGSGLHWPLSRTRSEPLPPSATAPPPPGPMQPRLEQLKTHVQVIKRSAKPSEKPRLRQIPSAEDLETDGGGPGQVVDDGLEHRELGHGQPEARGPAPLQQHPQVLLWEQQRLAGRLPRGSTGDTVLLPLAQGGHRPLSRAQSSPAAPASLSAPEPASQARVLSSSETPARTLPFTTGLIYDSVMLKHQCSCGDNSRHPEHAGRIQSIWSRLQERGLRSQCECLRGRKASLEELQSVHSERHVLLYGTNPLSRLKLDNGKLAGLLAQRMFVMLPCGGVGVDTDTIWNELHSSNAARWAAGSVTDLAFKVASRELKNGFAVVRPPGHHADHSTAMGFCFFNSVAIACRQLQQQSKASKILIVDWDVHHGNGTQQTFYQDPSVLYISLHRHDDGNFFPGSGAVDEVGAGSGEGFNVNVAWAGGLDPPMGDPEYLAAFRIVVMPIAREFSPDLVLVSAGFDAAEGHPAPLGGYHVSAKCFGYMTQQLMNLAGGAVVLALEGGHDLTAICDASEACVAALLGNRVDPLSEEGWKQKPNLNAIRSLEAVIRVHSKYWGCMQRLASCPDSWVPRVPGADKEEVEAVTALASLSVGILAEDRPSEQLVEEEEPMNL

[4] = Effect on HDAC11 protein expression in human NCI-H1975 cells assessed as fold change at 0.05 uM incubated for 24 hrs by immunoblotting analysis (reference value: 1); type: functional
[5] = Downregulation of HDAC5 protein expression in human MDA-MB-231 cells assessed as fold change at 0.1 uM incubated for 24 hrs by immunoblotting analysis (reference value: 1); type: functional
[6] = Effect on HDAC1 protein expression in human NCI-H1975 cells assessed as fold change at 0.05 uM incubated for 24 hrs by immunoblotting analysis (reference value: 1); type: functional
[7] = Downregulation of HDAC6 protein expression in human NCI-H1975 cells assessed as fold change at 0.05 uM incubated for 24 hrs by immunoblotting analysis (reference value: 1); type: functional
[8] = Toxicity in athymic nude BALB/c mouse xenografted with human NCI-H1975 cells assessed as effect on AST level at 6 mg/kg, ip administered 5 times a week for 3 weeks and measured on day 22; type: organism-based; conditions: in vivo, 528 h, time 22 day
[9] = Effect on HDAC2 protein expression in human MDA-MB-231 cells assessed as fold change at 0.1 uM incubated for 24 hrs by immunoblotting analysis (reference value: 1); type: functional
[10] = Downregulation of HDAC10 protein expression in human NCI-H1975 cells assessed as fold change at 0.1 uM incubated for 24 hrs by immunoblotting analysis (reference value: 1); type: functional
[11] = Downregulation of HDAC2 protein expression in human NCI-H1975 cells assessed as fold change at 0.1 uM incubated for 24 hrs by immunoblotting analysis (reference value: 1); type: functional
[12] = Downregulation of HDAC7 protein expression in human NCI-H1975 cells assessed as fold change at 0.05 uM incubated for 24 hrs by immunoblotting analysis (reference value: 1); type: functional
[13] = biological target: Histone deacetylase 3 (Homo sapiens, UniProt O15379); experiment: Inhibition of recombinant human HDAC3 using acetylated luminogenic substrate incubated for 10 mins by ultra-glo recombinant firefly luciferase based luminescence assay
Sequence of Histone deacetylase 3 (O15379 whole entry): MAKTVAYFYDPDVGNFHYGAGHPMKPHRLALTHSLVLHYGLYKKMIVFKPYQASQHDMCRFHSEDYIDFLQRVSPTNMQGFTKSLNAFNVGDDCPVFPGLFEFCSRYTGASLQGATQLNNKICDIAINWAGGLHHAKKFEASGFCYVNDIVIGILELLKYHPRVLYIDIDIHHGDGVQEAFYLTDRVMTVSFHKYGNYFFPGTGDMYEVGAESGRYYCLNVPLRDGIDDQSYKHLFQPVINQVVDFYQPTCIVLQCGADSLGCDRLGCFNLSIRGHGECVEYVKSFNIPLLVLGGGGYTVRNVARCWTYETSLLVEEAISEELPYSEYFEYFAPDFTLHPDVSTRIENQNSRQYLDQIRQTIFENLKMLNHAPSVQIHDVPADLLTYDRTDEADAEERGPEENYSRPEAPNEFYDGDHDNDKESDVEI

[14] = Upregulation of acetylated H4 protein expression in human NCI-H1975 cells assessed as fold change at 0.1 uM incubated for 24 hrs by immunoblotting analysis (reference value: 1); type: functional
[15] = Downregulation of HDAC2 protein expression in human NCI-H1975 cells assessed as fold change at 0.05 uM incubated for 24 hrs by immunoblotting analysis (reference value: 1); type: functional
[16] = system: NCI-H1975; experiment: Antitumor activity against human NCI-H1975 cells xenografted in athymic nude BALB/c mouse assessed as average tumor size at 6 mg/kg, ip administered 5 times a week for 3 weeks and measured on day 22 (reference value: 776.4 +/- 118.1 mm3); type: functional; conditions: time 22 day
[17] = Downregulation of HDAC8 protein expression in human NCI-H1975 cells assessed as fold change at 0.1 uM incubated for 24 hrs by immunoblotting analysis (reference value: 1); type: functional
[18] = Downregulation of HDAC11 protein expression in human MDA-MB-231 cells assessed as fold change at 0.05 uM incubated for 24 hrs by immunoblotting analysis (reference value: 1); type: functional
[19] = Upregulation of acetylated H4 protein expression in human MDA-MB-231 cells assessed as fold change at 0.1 uM incubated for 24 hrs by immunoblotting analysis (reference value: 1); type: functional
[20] = Effect on HDAC5 protein expression in human NCI-H1975 cells assessed as fold change at 0.1 uM incubated for 24 hrs by immunoblotting analysis (reference value: 1); type: functional

CCOc1ccc(-c2nc(C(=O)NCc3ccc(C(=O)NO)cc3)c3[nH]c(=O)n(-c4cccnc4OC)c3n2)cn1
IC50 [1]: 138 nM
fold change (FC) [2]: 1.17
IC50 [3]: > 1000 nM
fold change (FC) [4]: 1.15
fold change (FC) [5]: 0.99
fold change (FC) [6]: 1.44
fold change (FC) [7]: 0.6
Activity [8]: Non-Toxic
fold change (FC) [9]: 1.25
fold change (FC) [10]: 0.9
fold change (FC) [11]: 0.69
fold change (FC) [12]: 0.94
IC50 [13]: 8.8 nM
fold change (FC) [14]: 1.95
fold change (FC) [15]: 0.77
Activity [16]: 331.8 mm3
fold change (FC) [17]: 0.46
fold change (FC) [18]: 0.53
fold change (FC) [19]: 2.91
fold change (FC) [20]: 1.53
